Test results: PMC2855122 (Journal of immunology (Baltimore, Md. : 1950), 2009)

System: HeLa-Kb-A3-47 cells
Test: Cell-surface HLA-A3 level after transfection with ER targeted precursors
Assay type: cell-based
Settings: GAP-A3 staining (Figure 7B)

Sequence: RVCEKMALY [R-Y]
- Surface expression of HLA-A3 after ER targeted peptide: increased the surface expression of HLA-A3
